Active and inactive are the calls of the source. Rule as the data show it: actives have a measured IC50 and inactives only a lower limit.

In the assay the target is Envelope glycoprotein gp160 (Human immunodeficiency virus 1, UniProt Q6QLK5). Nature of the assay: cell-free HIV fusion peptide-binding blockers – biochemical, uHTS, fluorescence dequenching, […] (AID 1986).
Sequence of Envelope glycoprotein gp160 (Q6QLK5 whole entry, the tested form may be a part): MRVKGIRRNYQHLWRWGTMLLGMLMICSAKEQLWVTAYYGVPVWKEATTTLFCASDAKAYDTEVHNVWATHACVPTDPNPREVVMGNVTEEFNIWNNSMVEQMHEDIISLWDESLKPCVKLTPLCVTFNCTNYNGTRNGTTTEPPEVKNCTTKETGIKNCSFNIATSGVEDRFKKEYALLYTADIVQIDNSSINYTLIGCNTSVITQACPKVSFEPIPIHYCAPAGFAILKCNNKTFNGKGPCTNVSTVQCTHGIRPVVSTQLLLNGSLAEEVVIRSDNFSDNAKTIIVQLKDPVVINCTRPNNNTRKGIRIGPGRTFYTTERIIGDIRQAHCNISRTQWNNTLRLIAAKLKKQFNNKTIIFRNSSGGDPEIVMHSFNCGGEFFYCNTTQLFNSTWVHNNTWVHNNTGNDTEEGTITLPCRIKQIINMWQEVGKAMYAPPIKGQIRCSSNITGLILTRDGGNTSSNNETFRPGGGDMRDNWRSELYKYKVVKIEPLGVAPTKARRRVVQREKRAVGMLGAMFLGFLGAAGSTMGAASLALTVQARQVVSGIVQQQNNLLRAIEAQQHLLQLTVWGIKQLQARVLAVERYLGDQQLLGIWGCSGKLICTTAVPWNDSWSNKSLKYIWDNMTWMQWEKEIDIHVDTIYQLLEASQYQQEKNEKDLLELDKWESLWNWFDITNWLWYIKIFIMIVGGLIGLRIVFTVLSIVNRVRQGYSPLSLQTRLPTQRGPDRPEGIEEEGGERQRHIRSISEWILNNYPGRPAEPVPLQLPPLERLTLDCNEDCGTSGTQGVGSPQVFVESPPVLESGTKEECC
As a reminder, the IC50 is the concentration at which inhibition is half-maximal. In the case of `O=C(NCc1ccccc1)c1ccc2c(=O)[nH]c3c(C(=O)NCC4CCCO4)sc(=S)n3c2c1` (stereo not drawn), the IC50 was 24.5 µM (active).
In the case of `O=C(O)C1Nc2c(O)cccc2C2C=CCC12` (stereo not drawn), the IC50 is 9.86 µM (active).
Regarding `O=C(CN1C(=O)S/C(=C\C=C\c2ccccc2)C1=O)Nc1ccccc1C(=O)O`, the IC50 was 21.1 µM (active).

Values taken from ChEMBL document CHEMBL1201862, “PubChem BioAssay data set” (2004).
